Test results as given in US6737383B1, “Herbicidal oxadiazolidines” (priority 1999, dated 2004).

Columns and labels:
smallflower flatsedge = experiment: Test B flood test smallflower flatsedge; type: in vivo, Cyperus difformis
Outline: (§1)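 Plants were grown to the 2-leaf stage before treatment with test chemical, then held in a greenhouse for twelve to sixteen days. Injury was visually rated against untreated controls on a 0–10 scale, where 0 is no effect and 10 is complete control.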

cocklebur = experiment: Test B pre/postemergence cocklebur; type: in vivo, Xanthium strumarium
Outline: (§2)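 Herbicidal effect was estimated by eye on a ten-point control scale after plants spent twelve to sixteen days in a greenhouse following soil or foliar treatment. Foliar sprays targeted plants at one to four leaves; all doses were formulated in a non-phytotoxic solvent with surfactant.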

wheat = experiment: Test B pre/postemergence wheat; type: in vivo, Triticum aestivum
Outline: as §2

rice = experiment: Test B flood test rice; type: in vivo, Oryza sativa
Outline: as §1

morningglory = experiment: Test B pre/postemergence morningglory; type: in vivo, Ipomoea hederacea
Outline: as §2

crabgrass = experiment: Test B pre/postemergence crabgrass; type: in vivo, Digitaria sanguinalis
Outline: as §2

pigweed = experiment: Test B pre/postemergence pigweed; type: in vivo, Amaranthus retroflexus
Outline: as §2

giant foxtail = experiment: Test B pre/postemergence giant foxtail; type: in vivo, Setaria faberii
Outline: as §2

sugar beet = experiment: Test B pre/postemergence sugar beet; type: in vivo, Beta vulgaris
Outline: as §2

surinam grass = experiment: Test B pre/postemergence surinam grass; type: in vivo, Brachiaria decumbens
Outline: as §2

corn = experiment: Test B pre/postemergence corn; type: in vivo, Zea mays
Outline: as §2

bedstraw = experiment: Test B pre/postemergence bedstraw; type: in vivo, Galium aparine; settings: Preemergence
Outline: as §2

wild oat = experiment: Test B pre/postemergence wild oat; type: in vivo, Avena fatua
Outline: as §2

duck salad = experiment: Test B flood test duck salad; type: in vivo, Heteranthera limosa
Outline: as §1

blackgrass = experiment: Test B pre/postemergence blackgrass; type: in vivo, Alopecurus myosuroides
Outline: as §2

bamyardgrass = experiment: Test B flood test barnyardgrass; type: in vivo, Echinochloa crus-galli
Outline: as §1

rape = experiment: Test B pre/postemergence rape; type: in vivo, Brassica napus
Outline: as §2

soybean = experiment: Test B pre/postemergence soybean; type: in vivo, Glycine max
Outline: as §2

purple nutsedge = experiment: Test B pre/postemergence purple nutsedge; type: in vivo, Cyperus rotundus
Outline: as §2

velvetleaf = experiment: Test B pre/postemergence velvetleaf; type: in vivo, Abutilon theophrasti
Outline: as §2

[1] = Rate 62 g/ha, flood test species, Pre-emergence, visual evaluation after twelve to sixteen days
[2] = Rate 125 g/ha, under heading Pre-emergence, flood test species, visual evaluation after twelve to sixteen days
[3] = Rate 250 g/ha, Pre-emergence (flood test species), scale 0 to 10, 0 is no effect, 10 is complete control
[4] = Rate 500 g/ha, Pre-emergence section of Table B, 0 to 10 scale (0 no effect, 10 complete control)
[5] = Postemergence, Rate 62 g/ha, scale of 0 to 10, 0 is no effect, 10 is complete control
[6] = Postemergence, Rate 125 g/ha, scale of 0 to 10 where 0 is no effect and 10 is complete control
[7] = Postemergence, Rate 250 g/ha, scale of 0 to 10, 0 is no effect, 10 is complete control
[8] = Postemergence, Rate 500 g/ha, scale of 0 to 10 where 0 is no effect and 10 is complete control
[9] = Preemergence, Rate 62 g/ha, scale 0 to 10 (0 no effect, 10 complete control)
[10] = Preemergence, Rate 125 g/ha, scale of 0 to 10 where 0 is no effect and 10 is complete control
[11] = Preemergence, Rate 500 g/ha, scale of 0 to 10 where 0 is no effect and 10 is complete control

COC(C)n1c(=O)on(C(=O)N(c2ccc(Cl)cc2)C(C)C)c1=O (stereo not shown) [Compound 592]
Plant response rating, S. Flatsedge (0 to 10 scale, 0 is no effect, 10 is complete control) (smallflower flatsedge; [1]): 0 | S. Flatsedge plant response rating (0 to 10 scale, 0 is no effect, 10 is complete control) (smallflower flatsedge; [2]): 0 | S. Flatsedge plant response rating (smallflower flatsedge; [3]): 0 | S. Flatsedge plant response rating (smallflower flatsedge; [4]): 0 | Cocklebur plant response rating (cocklebur; [5]): 0 | Plant response rating, Cocklebur (cocklebur; [6]): 0 | Cocklebur plant response rating (cocklebur; [7]): 0 | Plant response rating, Cocklebur (cocklebur; [8]): 0 | Cocklebur plant response rating (cocklebur; [9]): 0 | Cocklebur plant response rating (cocklebur; [10]): 0 | Cocklebur plant response rating (0 to 10 scale) (cocklebur; Preemergence, Rate 250 g/ha): 0 | Plant response rating, Cocklebur (cocklebur; [11]): 0 | Plant response rating, Wheat (wheat; [6]): 0 | Wheat plant response rating (wheat; [7]): 0 | Plant response rating, Wheat (wheat; [8]): 0 | Wheat plant response rating (wheat; [9]): 0 | Wheat plant response rating (wheat; [10]): 0 | Plant response rating, Wheat (wheat; [11]): 0 | Plant response rating, Rice (0 to 10 scale, 0 is no effect, 10 is complete control) (rice; [1]): 0 | Rice plant response rating (0 to 10 scale, 0 is no effect, 10 is complete control) (rice; [2]): 0 | Rice plant response rating (rice; [3]): 0 | Rice plant response rating (rice; [4]): 0 | Morningglory plant response rating (morningglory; [5]): 1 | Plant response rating, Morningglory (morningglory; [6]): 1 | Morningglory plant response rating (morningglory; [7]): 2 | Plant response rating, Morningglory (morningglory; [8]): 2 | Morningglory plant response rating (morningglory; [9]): 0 | Morningglory plant response rating (morningglory; [10]): 0 | Plant response rating, Morningglory (morningglory; [11]): 0 | Crabgrass plant response rating (crabgrass; [5]): 0 | Plant response rating, Crabgrass (crabgrass; [6]): 0 | Crabgrass plant response rating (crabgrass; [7]): 0 | Plant response rating, Crabgrass (crabgrass; [8]): 2 | Crabgrass plant response rating (crabgrass; [9]): 0 | Crabgrass plant response rating (crabgrass; [10]): 0 | Plant response rating, Crabgrass (crabgrass; [11]): 2 | Plant response rating, Redroot pigweed (pigweed; [6]): 0 | Redroot pigweed plant response rating (pigweed; [7]): 0 | Plant response rating, Redroot pigweed (pigweed; [8]): 0 | Redroot pigweed plant response rating (pigweed; [9]): 0 | Redroot pigweed plant response rating (pigweed; [10]): 0 | Plant response rating, Redroot pigweed (pigweed; [11]): 0 | Giant foxtail plant response rating (giant foxtail; [5]): 0 | Plant response rating, Giant foxtail (giant foxtail; [6]): 0 | Giant foxtail plant response rating (giant foxtail; [7]): 0 | Plant response rating, Giant foxtail (giant foxtail; [8]): 0 | Giant foxtail plant response rating (giant foxtail; [9]): 0 | Giant foxtail plant response rating (giant foxtail; [10]): 0 | Plant response rating, Giant foxtail (giant foxtail; [11]): 0 | Plant response rating, Sugarbeets (sugar beet; [6]): 0 | Sugarbeets plant response rating (sugar beet; [7]): 0 | Plant response rating, Sugarbeets (sugar beet; [8]): 0 | Sugarbeets plant response rating (sugar beet; [9]): 0 | Sugarbeets plant response rating (sugar beet; [10]): 0 | Plant response rating, Sugarbeets (sugar beet; [11]): 0 | B. signalgrass plant response rating (surinam grass; [5]): 0 | Plant response rating, B. signalgrass (surinam grass; [6]): 0 | B. signalgrass plant response rating (surinam grass; [7]): 0 | Plant response rating, B. signalgrass (surinam grass; [8]): 0 | B. signalgrass plant response rating (surinam grass; [9]): 0 | B. signalgrass plant response rating (surinam grass; [10]): 0 | B. signalgrass plant response rating (0 to 10 scale, 0 is no effect, 10 is complete control) (surinam grass; Preemergence, Rate 250 g/ha): 0 | B. signalgrass plant response rating (surinam grass; [11]): 0 | Corn plant response rating (corn; [5]): 0 | Plant response rating, Corn (corn; [6]): 0 | Corn plant response rating (corn; [7]): 0 | Plant response rating, Corn (corn; [8]): 0 | Corn plant response rating (corn; [9]): 0 | Corn plant response rating (corn; [10]): 0 | Corn plant response rating (0 to 10 scale) (corn; Preemergence, Rate 250 g/ha): 0 | Plant response rating, Corn (corn; [11]): 0 | Bedstraw plant response rating (bedstraw; Rate 62 g/ha, scale 0 to 10 (0 no effect, 10 complete control)): 0 | Bedstraw plant response rating (bedstraw; Rate 125 g/ha, scale of 0 to 10 where 0 is no effect and 10 is complete control): 0 | Plant response rating, Wild oats (wild oat; [6]): 0 | Wild oats plant response rating (wild oat; [7]): 0 | Plant response rating, Wild oats (wild oat; [8]): 0 | Wild oats plant response rating (wild oat; [9]): 0 | Wild oats plant response rating (wild oat; [10]): 0 | Plant response rating, Wild oats (wild oat; [11]): 0 | Plant response rating, Ducksalad (0 to 10 scale, 0 is no effect, 10 is complete control) (duck salad; [1]): 0 | Ducksalad plant response rating (0 to 10 scale, 0 is no effect, 10 is complete control) (duck salad; [2]): 0 | Ducksalad plant response rating (duck salad; [3]): 0 | Ducksalad plant response rating (duck salad; [4]): 0 | Blackgrass plant response rating (blackgrass; [5]): 0 | Plant response rating, Blackgrass (blackgrass; [6]): 0 | Blackgrass plant response rating (blackgrass; [7]): 0 | Plant response rating, Blackgrass (blackgrass; [8]): 0 | Blackgrass plant response rating (blackgrass; [9]): 0 | Blackgrass plant response rating (blackgrass; [10]): 0 | Blackgrass plant response rating (0 to 10 scale) (blackgrass; Preemergence, Rate 250 g/ha): 0 | Blackgrass plant response rating (blackgrass; [11]): 0 | Plant response rating, Barnyardgrass (0 to 10 scale, 0 is no effect, 10 is complete control) (bamyardgrass; [1]): 0 | Barnyardgrass plant response rating (0 to 10 scale, 0 is no effect, 10 is complete control) (bamyardgrass; [2]): 0 | Barnyardgrass plant response rating (bamyardgrass; [3]): 0 | Barnyardgrass plant response rating (bamyardgrass; [4]): 0 | Rape plant response rating (rape; [5]): 0 | Plant response rating, Rape (rape; [6]): 0 | Rape plant response rating (rape; [7]): 0 | Plant response rating, Rape (rape; [8]): 0 | Rape plant response rating (rape; [9]): 0 | Rape plant response rating (rape; [10]): 0 | Plant response rating, Rape (rape; [11]): 0 | Plant response rating, Soybean (soybean; [6]): 1 | Soybean plant response rating (soybean; [7]): 1 | Plant response rating, Soybean (soybean; [8]): 1 | Soybean plant response rating (soybean; [9]): 0 | Soybean plant response rating (soybean; [10]): 0 | Plant response rating, Soybean (soybean; [11]): 0 | Nutsedge plant response rating (purple nutsedge; [5]): 0 | Plant response rating, Nutsedge (purple nutsedge; [6]): 0 | Nutsedge plant response rating (purple nutsedge; [7]): 0 | Plant response rating, Nutsedge (purple nutsedge; [8]): 0 | Nutsedge plant response rating (purple nutsedge; [9]): 0 | Nutsedge plant response rating (purple nutsedge; [10]): 0 | Plant response rating, Nutsedge (purple nutsedge; [11]): 0 | Plant response rating, Velvetleaf (velvetleaf; [6]): 0 | Velvetleaf plant response rating (velvetleaf; [7]): 0 | Plant response rating, Velvetleaf (velvetleaf; [8]): 0 | Velvetleaf plant response rating (velvetleaf; [9]): 0 | Velvetleaf plant response rating (velvetleaf; [10]): 0 | Plant response rating, Velvetleaf (velvetleaf; [11]): 0
